The nature of data set [1]: Absorption and emission spectra, fluorescence quantum efficiency in EtOH, PBS and lipid vesicles (MLV). The data set is classed as physicochemical. The protocol: FIGS. 2A-2C are plots showing absorption and emission spectra of 2a, in comparison with ElectroFluor630, in various solvent environments: MLV, EtOH, and PBS. Multilamellar lipid vesicle suspension (MLV) was prepared by sonicating soybean phosphatidylcholine in PBS buffer (2 mg/mL) to mimic the cell membrane environment. The emission spectra in ethanol and PBS buffer were scaled 10 and 20 times respectively relative to the emission spectra in MLV. Excitation wavelength is 580 nm for emission spectra.
All chemicals were purchased from commercial sources (Sigma Aldrich, Acros, TCI America, Combi-Blocks, and others) and used without further purification. Column chromatography was generally performed on COMBIFLASH NextGen 300 using normal phase silica columns except that for some final dye products amine silica columns were used. Thin layer chromatography (TLC) was carried out on EM 60 F-254 plastic TLC plates. NMR spectra were recorded on Varian 400 MHz, 500 MHz, and 800 MHz instruments at the UConn Heath Structural Biology Facility. All spectra are referenced internally to TMS or residual solvent signals. Electrospray ionization (ESI) high-resolution mass spectra (HRMS) were obtained on a QStar Elite (AB Sciex) at the Department of Chemistry, University of Connecticut. UV/Vis absorption spectra were recorded on a UV-Visible spectrophotometer (Shimadzu, UV-1601PC) and fluorescence emission spectra on a Horiba Fluorolog spectrofluorometer (Horiba, Inc., Edison, NJ). Fluorescence quantum yield for dyes was determined by a relative method using Rhodamine 6G (excited at 480 nm, FQY=0.95 in EtOH) or cresyl violet (excited at 580 nm, FQY=0.54 in MeOH) as the references.
Absorbance and the fluorescence properties of the new VSDs were determined. The absorption and emission spectra for 2a, together with ElectroFluor630, in aqueous buffer (PBS), ethanol, and when intercalated in the membrane of lipid vesicles are shown in FIGS. 2A-C. […] This is particularly advantageous for fluorescence imaging because background fluorescence from unbound dye is negligible. Another characteristic of the hemicyanine VSDs that is preserved by 2a in FIGS. 2A-C is the large Stokes shift between the excitation and emission maxima. 125 nm for the membrane-bound dye. This is also a benefit for fluorescence detection and imaging, as the fluorescence can be readily filtered from scattered exciting light. The broad wavelength window afforded by the spectra is also an important benefit for the design of experiments with multiple fluorescent sensors. For comparative purposes, certain VSDs are shown below.
As expected, the spectra are largely insensitive to alkyl substitution. Table 1 also includes data for ElectroFluor630 (aka Di-4-ANEQ (F) PTEA) for comparison. The absorption maxima of 2a in ethanol (EtOH), aqueous buffer (PBS) and when bound to lipid membranes (multilamellar vesicles, MLV) are red shifted by 77 nm, 63 nm and 63 nm, respectively, relative to ElectroFluor630, which is isostructural to 2a. […] The absorption and emission spectra of 2a, 2b, and 2c are all shifted to the red by 50-65 nm relative to ElectroFluor630.

A short description of data set [2]: Voltage sensitivity on voltage-clamped hemispherical lipid bilayer. To be noted: long pass emission filter. An excerpt:
It is known that optimal voltage sensitivity can be obtained by measuring the compounds on a voltage-clamped hemispherical bilayer apparatus. The apparatus can include a patch-clamp amplifier, such as a HEKA EPC-8 patch-clamp amplifier. Measurements can be obtained by stepping the membrane potential between two different potentials for a set time lapse. such as, for example, −110 and −60 mV every 10 ms.
Testing VSDs in a voltage-clamped hemispherical lipid bilayer allows one to determine the sensitivity of the VSDs as a function of excitation wavelength. This system has a Teflon tube filled with KCl and is immersed in a KCl solution in a cuvette. A lipid bubble is blown at the tip of the tube and spontaneously forms a bilayer membrane. The VSD to be tested is introduced on one side of the bilayer, usually in the cuvette. Electrodes in the tube and in the cuvette allow the imposition of a voltage across the membrane and a tungsten lamp coupled to a monochromator allows excitation wavelength dependence of the fluorescence response to voltage steps to be determined. This screening approach has allows for the comparison of the efficacy of newly developed VSDs in a well-controlled, consistent manner and to also determine excitation and emission wavelengths with optimal.
Voltage sensitivities of 2a as a function of voltage is shown in FIG. 3A for excitation at 730 nm and 570 nm. The voltage response is linear over the range of −100 mV to +100 mV; 570 nm is slightly to the blue of the isosbestic point, accounting for the weak but inverted sensitivity at this wavelength. […] This opposite polarity at the blue and red edges underlies the ability to use electrochromic hemicyanine dyes for dual-wavelength ratio imaging. The precise location of the isosbestic point in the excitation wavelength depends on the emission filter used because the emission spectrum is also voltage dependent for hemicyanine dyes.
The magnitude and wavelengths of the optimal voltage sensitivities of all the VSDs on the voltage-clamped hemispherical bilayer are included in the third column of Table 1.

Consider `CCCCCCN(CCCCCC)c1ccc2c(c1)OCC(/C=C/c1c(F)c[n+](CCC[N+](CC)(CC)CC)c3ccccc13)=C2.[Br-].[Br-]` [2c], for which the absorption maximum was 696 nm in data set [1] (in EtOH), 599 nm in data set [1] (in MLV (multilamellar lipid vesicles)) and 597 nm in data set [1] (in PBS). The “Fluorescence quantum efficiency (FQE)” value in data set [1] (in lipid vesicle suspensions) is 0.10. The same compound returned an emission maximum in data set [1] (membrane-bound (MLV)) of 734 nm. Also, in data set [2], the “Ex (excitation wavelength of optimal voltage sensitivity)” value stood at 730 nm. Besides, the “Voltage Sensitivity ΔF/F per 100 mV” value in data set [2] (magnitude at optimal Ex/Em) came out at 12%.

Values taken from patent US20260048151A1, “HEMICYANINE PUSH-PULL DYES BASED ON CHROMENE ELECTRON DONORS” (UNIVERSITY OF CONNECTICUT, priority 2022, published 2026).
